Results reported in a melting point compilation (Tetko et al.; mined from patent text by program, amines drawn as free bases though some values may be those of a salt).

Row | Compound | melting point [°C]
1 | CC(=O)N(O)CCOc1ccc(-c2ccc(C#N)cc2)cc1 | 174 to 175
2 | CC1=C(C2C=CN(C(=O)OCC(Cl)(Cl)Cl)N=C2)SCC(=O)N1 (centres undefined) | 156 to 157
3 | COCCOc1ccc(CCNC(=O)C(F)(F)F)cc1S(=O)(=O)N=CN(C)C | 134 to 136
4 | O=C1c2c(-c3ccccc3)cc(CCl)nc2OCCN1Cc1cc(C(F)(F)F)cc(C(F)(F)F)c1 | 183 to 184
5 | COC(=O)c1ccc2c([N+](=O)[O-])cc3c(c2c1)C(CCl)CN3 (centres undefined) | 161 to 163
6 | CN1C(=O)CN=C(c2ccccc2)c2cc(NO)ccc21 | 211 to 213
7 | CCOC(=O)c1sc(N)nc1CC | 177 to 179
8 | COC(=O)N1CCc2ccc(N)cc2CC1 | 100 to 104
9 | OCCc1nccn1CCCCc1ccc(OCc2coc(/C=C/c3ccc(Cl)cc3)n2)cc1 | 127 to 128
10 | O=C1CC(c2cccc(-c3nc(CCl)co3)c2)=Nc2ccc(-n3cccc3)cc2N1 | 206 to 207
11 | CSc1nc2ccnn2c(N)c1C#N | > 240
12 | CC(c1oc2ccccc2c(=O)c1-c1cc(F)cc(F)c1)n1cnc2c(N)ncnc21 (centres undefined) | 267 to 269
13 | CC(C)NC(=O)c1cc2nc(C3CC3)n(C)c2c(Cl)c1NC(=O)c1cc(C(F)(F)F)nn1-c1ncccc1Cl | 242 to 244
14 | CCCCn1nc2c(N)nc3ccccc3c2c1CCS(=O)(=O)CCC | 169 to 171
15 | COC(=O)C1=C(C)NC(C)=C(c2nnco2)C1c1cccc(Cl)c1Cl (centres undefined) | 225 to 229
16 | ClC(Cl)(Cl)c1cc(-c2ccccc2)c2ccc3c(-c4ccccc4)cc(C(Cl)(Cl)Cl)nc3c2n1 | 180 to 184
17 | CCCCc1c(-c2ccncc2)[nH]c(-c2ccncc2)c1C(=O)OCC | 256 to 258
18 | CC(=O)C1CNCc2c1[nH]c1cnc3ccccc3c21 (centres undefined) | 218 to 221
19 | C#C[C@@H](O)C1CCCCC1 | 56 to 58
20 | COC(=O)c1ccc(NC(=O)c2ccccc2-c2ccccc2)cc1Cl | 132 to 134
21 | O=C(Nc1ccc(C=CCN2C(=O)c3ccccc3C2=O)cc1)c1ccccc1-c1ccc(C(F)(F)F)cc1 | 190
22 | Nc1ccc(-c2ncc(NC(=O)OCc3ccccc3)c(=O)n2CC(=O)NC(Cc2ccccc2)C(=O)C(F)(F)F)cc1 (centres undefined) | 98 to 101
23 | CCN(CC)C(=O)Nc1ccc(S(=O)(=O)n2c(=O)n(C3CCCCC3)c3cc(Cl)ccc32)c(OC)c1 | 250
24 | CCCCC(Cc1ccc(OCCCN(C)C(=O)c2ccc(-c3ccccn3)cc2)cc1)C(=O)O (centres undefined) | 110 to 112
25 | COc1ccc(C(NC(C)=O)C(=O)c2ccc(Cl)cc2)cc1 (centres undefined) | 140

Row | Compound | melting point [°C]
26 | CCOC(=O)C1=C(COCc2nnn(CCN3CCN(C(=O)NC)CC3)n2)NC(C)=C(C(=O)OC)C1c1cccc(Cl)c1Cl (centres undefined) | 112 to 114
27 | CCOC(C#N)Cc1ccc(O)c(N)c1 (centres undefined) | 114 to 115
28 | Nc1cccc(Oc2ccc(Cl)nn2)c1 | 76 to 77
29 | CCc1oc2ccccc2c1C(=O)c1ccc(Br)c(S(N)(=O)=O)c1 | 202 to 206
30 | Cc1cccc2c(Nc3cccc(OCCCCN(CCCl)CCCl)c3)c3cccc(C(=O)NCCN(C)C)c3nc12 | 131 to 132
31 | O=[N+]([O-])c1ccc(S)c(Cl)c1 | 77 to 78
32 | Cc1cc(C)cc(N(CCN)Cc2ccc3nc(NCCCN4CCOCC4)n(Cc4nc(C)ccc4O)c3c2)c1 | 196
33 | Cc1cc(-c2c(Cl)c(=O)c2=O)c2c(C)ccc(C(C)C)cc1-2 | 138 to 139
34 | COc1ccc(-n2nc3c4c([nH]cc-3c2=O)CCCCCC4)cc1 | 275 to 277
35 | CC(CCCC(C)(C)O)C1CCC2C3=CC=C4CCCC(O)C4(C)C3CCC21C (centres undefined) | 151 to 152
36 | CC(C)(C)C(=O)C(C(O)C(Cl)(Cl)Cl)n1cncn1 (centres undefined) | 220 to 222
37 | CCCCn1ccc(-c2ccc(Oc3cc(C)nc(C)c3)cc2F)c(C#N)c1=O | 170
38 | O=c1oc2ccccc2cc1CCN1CCC(Nc2nc3ccccc3n2Cc2cccs2)CC1 | 165
39 | O=c1[nH]c2cc(C(F)(F)F)ccc2n(CCc2ncc[nH]2)c1=O | > 250
40 | Cc1nc(N)sc1CCC1CCCCC1 | 98 to 100
41 | CC(=NO)c1ccc2nnn(Cc3ccc4ncccc4c3)c2n1 | 259 to 261
42 | CNc1nc(-c2cccc(N)c2)cs1 | 118 to 121
43 | CCc1c2c(c(C)c(C)c1N1CCN(c3ccc(OC)cc3)CC1)OC(C)(C)C2=O | 133 to 134
44 | CC(C#CCCCc1ccccc1)N(O)C(N)=O (centres undefined) | 78 to 81
45 | O=c1cc(-c2ccc(OCc3ccccc3)c(OCc3ccccc3)c2)oc2ccc(OCC3CO3)cc12 (centres undefined) | 147 to 149
46 | CC(C)c1cccc(C(C)C)c1NC(=O)CN1CCCN(CCCSc2nc3cccc(C(F)(F)F)c3o2)CC1 | 77 to 79
47 | COc1ccc(C(=O)COc2ccc(NC3=NCCN3)cc2)cc1 | 65.5 to 69
48 | CC(C)c1cccc(Cl)c1Oc1nnc(Cl)cc1Cl | 90 to 91
49 | COc1ccc(C(=O)Nc2c(Cl)cc(CO)cc2Cl)cc1OC1CCCC1 | 174 to 176
50 | CCCCc1nc(Cl)c(CC(=O)O)c(Cc2ccc(-c3ccccc3-c3nnn[nH]3)cc2)n1 | 180

Row | Compound | melting point [°C]
51 | Cn1cc(C2=C(c3c4n(c5ccccc35)CCC(CO)CC4)C(=O)NC2=O)c2ccccc21 (centres undefined) | 109 to 111
52 | CC1CCCCc2ncc(C#N)c(=O)n21 (centres undefined) | 154
53 | CS(=O)(=O)c1cccc(C/C=C(/F)CN2C(=O)c3ccccc3C2=O)c1 | 124 to 126
54 | Nc1nc(-c2ccc3c(c2)OCCO3)c(-c2ccccn2)s1 | 214
55 | CCCCCCCCCCCCCCCCC1CC(Cn2cncn2)(c2ccc(Cl)cc2)N(C)O1 (centres undefined) | 100 to 102
56 | CCOc1nn(-c2ccc(C(F)(F)F)cn2)cc1CCCOc1nn(CC)cc1CC(=O)O | 108 to 109
57 | CC(=O)Nc1c(-c2ccc(-c3ccccc3)cc2)nc2ccc(F)cc2c1C(=O)O | 256 to 259
58 | FC(F)(F)c1c[nH]cc1-c1cccc(Cl)c1Cl | 63 to 65
59 | CC(C)(C)N1CCN(c2cc3c(cc2F)c(=O)c(C(=O)O)cn3C2CC2)CC1 | 257 to 260
60 | COc1ccc(-c2csc(N)n2)cc1 | 194 to 205
61 | Cc1nc2n(c(=O)c1CCCl)CCCC2OCc1ccccc1 (centres undefined) | 140 to 141
62 | COc1cccc2c1-c1c(ccn1CCNC(C)=O)CC2 | 132 to 133
63 | COc1ccc(C2(C)C(=O)Nc3cc(OC)cc(Cl)c3C2=O)cc1 (centres undefined) | 222 to 224
64 | COc1ccccc1NC(=O)c1ccc(COC2CCCCO2)cc1 (centres undefined) | 67 to 70
65 | CC(=O)NCc1cn(-c2ccc(-n3cccc3)c(F)c2)nn1 | 210 to 215
66 | N#Cc1ccc2c(CCC3CCN(Cc4ccccc4)CC3)noc2c1 | 113 to 114
67 | Cc1cccc(-c2n[nH]cc2-c2ccc(F)c(-c3ccc(S(=O)(=O)CCO)cc3)c2)n1 | 88 to 90
68 | CCOC(=O)C1CCC(=O)C(Sc2ccc(C)cc2)C1 (centres undefined) | 87 to 89
69 | CCOC(=O)C1CC12CCN(c1ccc(N3CC(CNC(C)=O)OC3=O)cc1F)CC2 (centres undefined) | 104 to 106
70 | N#CCNC(=O)C(F)(F)F | 39 to 40
71 | CCc1c(Cl)cc(C(C)(C)C)c(O)c1-c1nc2ccc(S(=O)(=O)C(F)(F)F)cc2c(=O)[nH]1 | 285 to 286
72 | COCOc1cc(OC)cc(C)c1C(=O)c1ccc(OCc2ccccc2)cc1 | 49 to 50
73 | CCCCCCCCCCCCCCOc1ccc(CC(=O)OCC)cc1OC | 40 to 41
74 | Clc1ccc(N2CCN(Cc3nc4ccccc4[nH]3)CC2)cc1 | 212 to 213
75 | CCCNC(=O)NCc1cccc2c1CN(C1CCC(=O)NC1=O)C2=O (centres undefined) | 298 to 300

Row | Compound | melting point [°C]
76 | CN1CCC(=C2c3ccccc3[C@@H](O)[C@@H](O)c3ccccc32)CC1 | 248 to 255
77 | O=C(O)CCCCCCN1C(=O)c2ccccc2C1=O | 112 to 115
78 | CC(C)NC(C)C(=O)Nc1cccc2c1C(=O)c1c(NC(=O)C(C)NC(C)C)cccc1C2=O (centres undefined) | 105 to 106
79 | Oc1nsnc1-c1ccc(Cl)cc1 | 240 to 242
80 | O=C1Cc2cc(F)ccc2N1 | 131 to 133
81 | Cc1ccc(N2C(=O)C(O)=C(C(=O)c3ccc(C(C)C)cc3)C2c2ccc(Cn3cncn3)cc2)nn1 (centres undefined) | 223
82 | Cc1ccc(S(=O)(=O)OCC2Cc3cccc(OS(=O)(=O)C(F)(F)F)c3O2)cc1 (centres undefined) | 60 to 63
83 | O=C1OCC2Cc3ccccc3OC12 (centres undefined) | 107 to 111
84 | CC1(C)CC(=O)C(C(=O)NS(=O)(=O)c2ccc(Cl)cc2)C(=O)C1 | 103 to 106
85 | Nc1ncc(CN2CC=C(c3ccccc3)CC2)c(N)n1 | 239 to 241
86 | O=C(O)c1c[nH]c(Sc2cccc(Cl)c2)c1 | 134 to 137
87 | CN(C)CCNC1=CC(=O)c2nc(-c3ccccc3Br)oc2C1=O | 147 to 148
88 | CCCC(=O)c1cnc2c(OC)cccc2c1Nc1ccccc1COC | 128 to 130
89 | N#Cc1c2n(c(=O)n1-c1cc(O)c(Cl)cc1F)CCCC2 | 204 to 206
90 | CCS(=O)(=O)N(C)C1CCN(c2ccccc2)c2ccccc21 (centres undefined) | 72
91 | CCOC(=O)C(=O)Nc1cc(CC)c(C(=O)OCC)s1 | 103 to 105
92 | O=C(O)c1cc2cccnc2[nH]1 | > 260
93 | COC(=Cc1ncn(C(c2ccccc2)(c2ccccc2)c2ccccc2)c1C)C(=O)c1cccc2ccccc12 | 220 to 222
94 | COCc1c[nH]c2c([N+](=O)[O-])cccc2c1=O | > 250
95 | CC(C)NN=C(N)Nc1c(Cl)cccc1Cl | 227 to 228
96 | CC(C)c1nc(CN(C)C(=O)N[C@H](C(=O)O)C(C)C)cs1 | 82.8 to 93.8
97 | CCN1C(=O)C(C)(C)C(=O)N(C)c2cc(CCN(CCn3cc(C)c4oc(C)cc4c3=O)Cc3cnccc3C)ccc21 | 155 to 156
98 | COC(=O)Cc1ccccc1[C@@H]1O[C@H]1c1ccccc1 (relative stereo) | 118 to 119
99 | O=C(Nc1ccc(-c2nn(C(=O)c3ccccc3)c3c2Cc2ccccc2-3)cc1)c1ccccc1 | 241
